Test results taken from ChEMBL document CHEMBL1201862, “PubChem BioAssay data set” (2004).
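Where inhibition never reached the appropriate level, the endpoint shown equals the highest concentration tested. Otherwise, values were interpolated linearly from a five-concentration, 48-hour dose response in 96-well plates. Abbreviation: GI50, concentration required for 50% inhibition of growth.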 The source made the active and inactive calls. Rule as the data show it: active = GI50 up to about 1.1 µM and inactive = higher.

Key:
Assay in all cases: DTP human tumour cell line panel, 48 h
BT-549 = test system: BT-549
T47D = test system: T47D
DLD-1 = test system: DLD-1
DMS-114 = test system: DMS-114
XF498 = test system: XF498
SNB-78 = test system: SNB-78
HOP-18 = test system: HOP-18
LXFL 529 = test system: LXFL 529
RXF 631 = test system: RXF 631

Compound	GI50 (BT-549)	GI50 (T47D)	GI50 (DLD-1)	GI50 (DMS-114)	GI50 (XF498)	GI50 (SNB-78)	GI50 (HOP-18)	GI50 (LXFL 529)	other results
CSCCC(N)P(C)(=O)O (centres undefined)	> 100 µM (inactive)	> 100 µM (inactive)	–	–	–	–	–	–	–
CN(C)CCNC(=O)c1ccc(NCCCN(C)CCCNc2ccc(C(=O)NCCN(C)C)c3nc4ccccc4c(O)c23)c2c(O)c3ccccc3nc12	0.254 µM (active)	0.171 µM (active)	–	–	–	–	–	–	–
CO/N=C\c1ccc2c(c1)Sc1ccccc1O2	–	24.5 µM (inactive)	–	–	–	–	–	–	–
CCOP(=Nc1ccc(N(C)C)cc1)(OCC)OCC	> 100 µM (inactive)	–	–	–	–	–	–	–	–
c1cc2nnc1SCCCSc1ccc(nn1)SCCCS2	19.9 µM (inactive)	31.3 µM (inactive)	–	–	–	–	–	–	–
C=CCN1C(=O)/C(=C/c2ccc(OC)cc2)NC1=S	50.2 µM (inactive)	42.2 µM (inactive)	–	–	–	–	–	–	–
Cc1cc(O)c(C(c2cccnc2)c2c(O)cc(C)[nH]c2=O)c(=O)[nH]1	> 100 µM (inactive)	> 100 µM (inactive)	–	–	–	–	–	–	–
CC(=O)O[C@@H]1C2=C(C3=C([O-])C4=CC=CC(=O)C4C(=O)C3=C2[N+]#N)[C@H](OC(C)=O)[C@@H](OC(C)=O)[C@]1(C)O (some centres undefined)	0.631 µM (active)	–	–	–	–	–	–	–	–
NC(=O)c1ncn2c1NC(=O)CC2	–	–	> 100 µM (inactive)	> 100 µM (inactive)	> 100 µM (inactive)	> 45.3 µM (inactive)	> 100 µM (inactive)	–	–
CC(C(=O)n1nnc2ccccc21)N(c1ccccc1)c1ccccc1 (centres undefined)	–	–	> 100 µM (inactive)	–	–	> 100 µM (inactive)	–	> 100 µM (inactive)	–
CC(C)(C)[Si](OC1CCOC1=O)(c1ccccc1)c1ccccc1 (centres undefined)	–	–	22.2 µM (inactive)	–	11.1 µM (inactive)	32.2 µM (inactive)	18.9 µM (inactive)	20.7 µM (inactive)	GI50 (RXF 631): 22.5 µM (inactive)
O=C(CSCC(=O)N/N=C/c1cc(I)cc(I)c1O)N/N=C/c1cc(I)cc(I)c1O	–	34.3 µM (inactive)	–	–	–	–	–	–	–
Cc1cccc(/C=C2\CCCc3ccccc3C2=O)c1	24.3 µM (inactive)	–	–	–	–	–	–	–	–
O=[N+]([O-])C(/C=C(\Cl)[N+](=O)[O-])=C1Nc2ccccc2N1	42 µM (inactive)	17.9 µM (inactive)	–	–	–	–	–	–	–
CC(C)CC(NC(=O)OCc1ccccc1)C(=O)NCCCCC(N)C(=O)NC(CCCCNC(=O)C(CC(C)C)NC(=O)OCc1ccccc1)C(=O)NC(CCCCNC(=O)C(CC(C)C)NC(=O)OCc1ccccc1)C(=O)NC(CCCCNC(=O)C(CC(C)C)NC(=O)OCc1ccccc1)C(=O)NC(CCCCNC(=O)C(CC(C)C)NC(=O)OCc1ccccc1)C(=O)NC(CCCCNC(=O)C(CC(C)C)NC(=O)OCc1ccccc1)C(=O)O (centres undefined)	> 100 µM (inactive)	> 100 µM (inactive)	–	–	–	–	–	–	–
CC(Oc1ccccc1Cl)C(=O)NN1C(=O)CSC1c1ccc(Cl)cc1 (centres undefined)	21.3 µM (inactive)	20.1 µM (inactive)	–	–	–	–	–	–	–
CC[C@@H]1C[C@@H]2CN3CCc4c([nH]c5ccc(OC)cc45)C(COC(=O)c4ccc(OC)c(OC)c4)(C2)C13	–	–	–	11.6 µM (inactive)	17.3 µM (inactive)	19.6 µM (inactive)	58.2 µM (inactive)	10.6 µM (inactive)	–
COC(=O)C(=O)C(C(C)=O)C(=O)C(=O)Nc1ccc(C)cc1C (centres undefined)	–	–	> 100 µM (inactive)	> 100 µM (inactive)	> 100 µM (inactive)	–	–	> 100 µM (inactive)	–
O=C(N/N=C(COc1ccccc1Cl)\N=C\c1ccncc1)c1ccncc1	> 100 µM (inactive)	> 100 µM (inactive)	–	–	–	–	–	–	–
O=NN(CCCl)C(=O)N[C@H]1CC[C@H](C(=O)O)CC1	–	–	> 100 µM (inactive)	22.8 µM (inactive)	> 100 µM (inactive)	> 100 µM (inactive)	> 100 µM (inactive)	–	–

Compound	GI50 (BT-549)	GI50 (T47D)	GI50 (DLD-1)	GI50 (DMS-114)	GI50 (XF498)	GI50 (SNB-78)	GI50 (HOP-18)	GI50 (LXFL 529)	other results
COc1ccc(C2=NN(c3nsc4ccccc34)C(=O)CC2)cc1	–	–	–	58.5 µM (inactive)	–	> 100 µM (inactive)	12.6 µM (inactive)	75 µM (inactive)	–
NC(=S)N/N=C1\CC(c2ccccc2)Nc2ccccc21 (centres undefined)	–	–	35.2 µM (inactive)	23.4 µM (inactive)	6.76 µM (inactive)	68.9 µM (inactive)	54.6 µM (inactive)	33.8 µM (inactive)	–
CON(C)C(=O)C(Cc1ccccc1)NC(=O)OCc1ccccc1 (centres undefined)	–	–	> 100 µM (inactive)	58.9 µM (inactive)	64.3 µM (inactive)	> 100 µM (inactive)	–	> 100 µM (inactive)	–
NS(=O)(=O)c1cc2c(cc1Cl)NC(C(=O)NNC(=O)c1ccncc1)=NS2(=O)=O	–	–	> 100 µM (inactive)	> 100 µM (inactive)	> 100 µM (inactive)	–	> 100 µM (inactive)	> 100 µM (inactive)	–
CC1CC(NC2CCCCC2)=Nc2ccccc2N1Cc1ccccc1 (centres undefined)	6.05 µM (inactive)	4.18 µM (inactive)	–	–	–	–	–	–	–
CCOC(=O)N1C2C=C(C)C(ON2C(=O)c2ccccc2)C2C(C)C(=O)N21 (centres undefined)	–	–	> 100 µM (inactive)	> 100 µM (inactive)	> 100 µM (inactive)	> 100 µM (inactive)	> 100 µM (inactive)	> 100 µM (inactive)	–
C=C(C)C(=O)O[C@H]1C[C@@]23O[C@@H]2CCC(=C[C@H]2OC(=O)C(=C)[C@H]12)COC3O (some centres undefined)	37.1 µM (inactive)	35.4 µM (inactive)	–	–	–	–	–	–	–
COC(=O)c1c[nH]cc1CCc1c[nH]cc1C(=O)OC	–	–	–	–	> 100 µM (inactive)	> 100 µM (inactive)	–	> 100 µM (inactive)	–
CCCCCCCCCCCCCCCCCC(=O)OCC(COC(=O)CCCN)OC(=O)CCCN (centres undefined)	–	17.4 µM (inactive)	–	–	–	–	–	–	–
Cc1nc2cccc(F)c2c(=O)n1C1CCCCNC1=O (centres undefined)	–	> 10 µM (inactive)	–	–	–	–	–	–	–
c1cc(CN2CCNCCNCCNCC2)cc(CN2CCNCCNCCNCC2)c1	> 100 µM (inactive)	> 100 µM (inactive)	–	–	–	–	–	–	–
Cc1cc(Cc2cc(Cc3cc(C)cc(C(C)(C)C)c3O)c(C)cc2C)c(O)c(C(C)(C)C)c1	17.5 µM (inactive)	14 µM (inactive)	–	–	–	–	–	–	–
O=CN1CCC23CC(O)CCC2C1Cc1cc(Oc2nnnn2-c2ccccc2)cc(O)c13 (centres undefined)	51.9 µM (inactive)	79.1 µM (inactive)	–	–	–	–	–	–	–
NC(=O)c1csc(C2O[C@@H](COP(=O)(O)OP(=O)(O)OC[C@H]3OC(n4cnc5c(N)ncnc54)[C@H](O)[C@@H]3O)[C@H](O)[C@@H]2O)n1 (some centres undefined)	–	–	45.2 µM (inactive)	> 100 µM (inactive)	33.2 µM (inactive)	> 100 µM (inactive)	> 100 µM (inactive)	> 100 µM (inactive)	–
CCOC(=O)c1cc2c([N+](=O)[O-])c(NC(C)=O)ccc2s1	72.1 µM (inactive)	15 µM (inactive)	–	–	–	–	–	–	–
Cc1ccc(S(=O)(=O)N/N=C2/CCC(C(C)(C)C)CC2Br)cc1 (centres undefined)	32.1 µM (inactive)	27.4 µM (inactive)	–	–	–	–	–	–	–
C=C1CC(OC)(C(O)C(=O)N[C@H]2OCO[C@H]3C2O[C@H](C[C@@H](COC)OC)C(C)(C)C3OC)O[C@H](C)[C@@H]1C (some centres undefined)	–	–	< 0.00482 µM (active)	< 0.00482 µM (active)	< 0.00482 µM (active)	< 0.00482 µM (active)	< 0.00482 µM (active)	–	–
CN(O)C(=O)CCCC(=O)NCC(C)(C)CNC(=O)CCCC(=O)N(C)O	–	> 100 µM (inactive)	–	–	–	–	–	–	–
COc1ccc(C2CC(c3sc(Nc4ccc(C)cc4)nc3C)=NN2)cc1 (centres undefined)	–	–	14 µM (inactive)	14.1 µM (inactive)	21 µM (inactive)	22.1 µM (inactive)	15.3 µM (inactive)	–	–
COc1cccc(CC(C)N)c1 (centres undefined)	–	–	> 100 µM (inactive)	> 100 µM (inactive)	–	> 100 µM (inactive)	> 100 µM (inactive)	> 100 µM (inactive)	GI50 (RXF 631): > 100 µM (inactive)
